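Growth conditions: 96-well plates. Treatment: test compound, 48 hours, 5 concentrations. Analysis: linear interpolation between bracketing concentrations; unreached endpoints set to highest concentration. At the TGI there is no net growth.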 A value given as a limit tells only on which side of the number the result lay.

The first assay has as its system OVCAR-8 ovarian. The assay is described as follows: NCI tumour cell line growth inhibition, 48 h.
`O=c1c2cc3c(cc2[nH]c2ncccc12)OCO3`: the TGI was > 10 µM.
`O=C(CNc1ccccc1Cl)Nn1c(-c2ccccc2)nc2ccccc2c1=O`: the TGI is > 100 µM.
On the same count and under the same terms, as for `Cc1csc(-c2cn(C)c3c2C(=O)C(N)=CC3=O)n1`, the figure is > 100 µM; as for `Cc1cc2[nH]c3[nH]c(=O)[nH]c(=O)c3c2cc1C`, > 100 µM.
`Nc1c(-c2cccc3ccccc23)c2ccc([N+](=O)[O-])cc2c(=O)n1-c1nc2ccccc2s1` registered a TGI of 10.5 µM.
The same measure, in the same setting: then `CC1CC[C@@]2(OC1)OC1C[C@H]3[C@@H]4CC[C@H]5CC(OC6OC(CO)C(OC7OC(CO)C(O)C(O)C7OC7OC(CO)C(O)C(O)C7O)C(O)C6O)CCC5(C)[C@H]4CCC3(C)C1[C@@H]2C` (stereo partly drawn), with 14.3 µM.
The same measure, in the same setting: as for `CC1(C)N=C(C(N)=O)c2ncn(CCCO)c2N1`, the figure is > 100 µM.
`CC(C)COP(=O)(OCC(C)C)C(NS(=O)(=O)c1ccccc1)(C(F)(F)F)C(F)(F)F` yielded a TGI of 25.5 µM.
Still for that read-out and setting: then `CN(C)CCCN1C(=S)N(CCCN(C)C)c2c3cc(O)ccc3nc3c([N+](=O)[O-])ccc1c23`, with 15 µM; and `CC(O)C1CC1(CO)CNc1cc(Cl)nc(N)n1` (stereo not drawn), with > 100 µM; and `CN(C)Cc1cc(C(=O)/C=C/c2ccc(O)cc2)cc(CN(C)C)c1O`, with > 100 µM.

A further assay has as its system MCF7 breast. Put plainly: NCI tumour cell line growth inhibition, 48 h.
As for `O=c1cc(N=P(c2ccccc2)(c2ccccc2)c2ccccc2)n(-c2ccccc2)c(=O)n1-c1ccccc1`, the TGI is 34.3 µM.
Regarding `COc1ccc(C2(CC(C)O)SCCCS2)cc1` (stereo not drawn), the TGI was > 100 µM.
As for `Clc1ccc(-c2nn3c(-c4ccncc4)nnc3s2)cc1`, the TGI was > 100 µM.
The same measure, in the same setting: then `COc1ccc(C(OCC2OC(n3cc(C)c(=O)[nH]c3=O)CC2n2cc(Cn3cc(F)c(=O)[nH]c3=O)nn2)(c2ccccc2)c2ccccc2)cc1` (stereo not drawn), with 34.7 µM.
The same measure, in the same setting: as for `C=CCn1c(=O)ccn(COCCO)c1=O`, the figure is > 100 µM; as for `Oc1ccccc1/C=N/c1nc2cc3sc(/N=C/c4ccccc4O)nc3cc2s1`, > 100 µM.
For the compound `CCN(CC)CCOc1ccc(N2C(=O)c3cc(OC)c(OC)cc3C2=O)cc1`, the TGI was > 100 µM.
Still for that read-out and setting: as for `C(=N\NC1=NCCCN1)/c1ccc2ccccc2c1`, the figure is 15.8 µM.
Still for that read-out and setting: then `CCOC(=N)n1c(=O)n(C2=NCCN2)c2ccccc21`, with > 100 µM.
In the case of `O=C(NCCN1CCOCC1)c1ccc2cc(C(=O)N3CC(CCl)c4ccc([N+](=O)[O-])cc43)[nH]c2c1` (stereo not drawn), the TGI was > 100 µM.
On to `O=c1c2cc3c(cc2[nH]c2ncccc12)OCO3`, for which the TGI is > 10 µM.
With `O=C(CNc1ccccc1Cl)Nn1c(-c2ccccc2)nc2ccccc2c1=O`, the TGI amounted to 31.4 µM.
For the compound `Cc1csc(-c2cn(C)c3c2C(=O)C(N)=CC3=O)n1`, the TGI is > 100 µM.
Turning to `Cc1cc2[nH]c3[nH]c(=O)[nH]c(=O)c3c2cc1C`, the TGI was > 100 µM.
Turning to `Nc1c(-c2cccc3ccccc23)c2ccc([N+](=O)[O-])cc2c(=O)n1-c1nc2ccccc2s1`, the TGI was 7.84 µM.
`CC1CC[C@@]2(OC1)OC1C[C@H]3[C@@H]4CC[C@H]5CC(OC6OC(CO)C(OC7OC(CO)C(O)C(O)C7OC7OC(CO)C(O)C(O)C7O)C(O)C6O)CCC5(C)[C@H]4CCC3(C)C1[C@@H]2C` (stereo partly drawn) displayed a TGI of 2.26 µM.
With `CC1(C)N=C(C(N)=O)c2ncn(CCCO)c2N1`, the TGI was > 100 µM.
`CC(C)COP(=O)(OCC(C)C)C(NS(=O)(=O)c1ccccc1)(C(F)(F)F)C(F)(F)F`: the TGI was > 100 µM.
The same measure, in the same setting: as for `CN(C)CCCN1C(=S)N(CCCN(C)C)c2c3cc(O)ccc3nc3c([N+](=O)[O-])ccc1c23`, the figure is 6.77 µM; as for `CC(O)C1CC1(CO)CNc1cc(Cl)nc(N)n1` (stereo not drawn), > 100 µM.
On the same count and under the same terms, then `CN(C)Cc1cc(C(=O)/C=C/c2ccc(O)cc2)cc(CN(C)C)c1O`, with > 100 µM.

The subject of a further assay is MDA-MB-231 breast. Put plainly: NCI tumour cell line growth inhibition, 48 h.
With `O=c1cc(N=P(c2ccccc2)(c2ccccc2)c2ccccc2)n(-c2ccccc2)c(=O)n1-c1ccccc1`, the TGI is 78.9 µM.
As to `COc1ccc(C2(CC(C)O)SCCCS2)cc1` (stereo not drawn), the TGI is > 100 µM.
On the same count and under the same terms, as for `Clc1ccc(-c2nn3c(-c4ccncc4)nnc3s2)cc1`, the figure is > 100 µM; as for `COc1ccc(C(OCC2OC(n3cc(C)c(=O)[nH]c3=O)CC2n2cc(Cn3cc(F)c(=O)[nH]c3=O)nn2)(c2ccccc2)c2ccccc2)cc1` (stereo not drawn), 7.7 µM.
Consider `C=CCn1c(=O)ccn(COCCO)c1=O`, for which the TGI was > 100 µM.
On the same count and under the same terms, as for `Oc1ccccc1/C=N/c1nc2cc3sc(/N=C/c4ccccc4O)nc3cc2s1`, the figure is > 100 µM.
The same measure, in the same setting: then `CCN(CC)CCOc1ccc(N2C(=O)c3cc(OC)c(OC)cc3C2=O)cc1`, with > 100 µM.
Still for that read-out and setting: then `C(=N\NC1=NCCCN1)/c1ccc2ccccc2c1`, with 20 µM.
Take `CCOC(=N)n1c(=O)n(C2=NCCN2)c2ccccc21`: the TGI is > 100 µM.
For the compound `O=C(NCCN1CCOCC1)c1ccc2cc(C(=O)N3CC(CCl)c4ccc([N+](=O)[O-])cc43)[nH]c2c1` (stereo not drawn), the TGI is 36.3 µM.
`O=c1c2cc3c(cc2[nH]c2ncccc12)OCO3`: the TGI was > 10 µM.
As to `O=C(CNc1ccccc1Cl)Nn1c(-c2ccccc2)nc2ccccc2c1=O`, the TGI is > 10 µM.
On the same count and under the same terms, as for `Cc1csc(-c2cn(C)c3c2C(=O)C(N)=CC3=O)n1`, the figure is > 100 µM; as for `Cc1cc2[nH]c3[nH]c(=O)[nH]c(=O)c3c2cc1C`, > 100 µM.
Still for that read-out and setting: as for `Nc1c(-c2cccc3ccccc23)c2ccc([N+](=O)[O-])cc2c(=O)n1-c1nc2ccccc2s1`, the figure is > 47.5 µM; as for `CC1CC[C@@]2(OC1)OC1C[C@H]3[C@@H]4CC[C@H]5CC(OC6OC(CO)C(OC7OC(CO)C(O)C(O)C7OC7OC(CO)C(O)C(O)C7O)C(O)C6O)CCC5(C)[C@H]4CCC3(C)C1[C@@H]2C` (stereo partly drawn), 3.04 µM.
As for `CC1(C)N=C(C(N)=O)c2ncn(CCCO)c2N1`, the TGI is > 100 µM.
`CC(C)COP(=O)(OCC(C)C)C(NS(=O)(=O)c1ccccc1)(C(F)(F)F)C(F)(F)F`: the TGI stood at 5.56 µM.
Still for that read-out and setting: as for `CN(C)CCCN1C(=S)N(CCCN(C)C)c2c3cc(O)ccc3nc3c([N+](=O)[O-])ccc1c23`, the figure is 25.5 µM; as for `CC(O)C1CC1(CO)CNc1cc(Cl)nc(N)n1` (stereo not drawn), > 100 µM; as for `CN(C)Cc1cc(C(=O)/C=C/c2ccc(O)cc2)cc(CN(C)C)c1O`, 79 µM.

The record behind these values is PubChem BioAssay (NCI).
